Measurements from PubChem BioAssay AID651630 (Sanford-Burnham Center for Chemical Genomics, 2012).
Activity calls are given as the source filed them.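 The calls were made as follows: active = lipid-stain IC50 at or below a set limit, with nuclear-stain toxicity IC50 at least five times higher; inactive = the rest.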

What was measured:
DAPI = assay: TAG lipid buildup inhibition with viability readout – cell-based, panel, Nile Red and DAPI fluorescence, H9c2, dose response (AID 651630); conditions: H9c2 cells, DAPI nuclear fluorescence (cytotoxicity counter-readout), oleic acid;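 also: cells exposed to compound overnight before fixation and staining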
TAG = assay: as above; conditions: H9c2 cells, Nile Red TAG fluorescence, oleic acid

Structure (SMILES)	IC50 cytotoxicity (DAPI nuclear signal decrease) (DAPI; mean of runs)	IC50 cytotoxicity (DAPI nuclear signal decrease) (DAPI; run 1) [µM]	IC50 cytotoxicity (DAPI nuclear signal decrease) (DAPI; run 2) [µM]	IC50 (TAG; run 1) [µM]	IC50 (TAG; run 2) [µM]	IC50 (TAG; mean of runs)
COc1ccc2c(c1)c(CC(=O)Nc1ccc(C)cc1)c(C)n2C(=O)c1ccc(Cl)cc1	> 25 µM (inactive)	> 25	> 25	20.1	> 25	–
COc1ccc(-c2cc3nc(-c4ccccc4)cc(N4CCN(C(=O)c5ccccc5)CC4)n3n2)cc1	> 25 µM (inactive)	> 25	> 25	> 25	> 25	> 25 µM (inactive)
CN1CSC(=S)N(C)C1	> 25 µM (inactive)	> 25	> 25	> 25	> 25	> 25 µM (inactive)
O=C1Nc2ccc(Br)cc2/C1=N\N=C\C1=C(N2CCOCC2)C(=C/c2ccccc2)/CC1	–	> 25	> 25	0.828	0.954	0.891 µM
CCOCCC(=O)Nc1ccc2c(c1)c(=O)n(C)n2C/C=C/c1ccccc1	> 25 µM (inactive)	> 25	> 25	> 25	> 25	> 25 µM (inactive)
COC(=O)c1cc(NC(=O)c2c(Cl)nc3sccn23)cc(C(=O)OC)c1	> 25 µM (inactive)	> 25	> 25	> 25	> 25	> 25 µM (inactive)
COc1cc(C2=NOC(C(=O)NCc3cccs3)C2)cc(OC)c1OC (stereo not drawn)	> 25 µM (inactive)	> 25	> 25	17.3	10.1	13.7 µM
COc1cccc(/C=N/NC(=O)CSc2cccc3cccnc23)c1	> 25 µM (inactive)	> 25	> 25	> 25	> 25	> 25 µM (inactive)
COc1ccccc1NC(=O)N1CCC(c2nc3cc(C)c(C)cc3[nH]2)CC1	> 25 µM (inactive)	> 25	> 25	> 25	> 25	> 25 µM (inactive)
COc1cc(NC(=O)Nc2nc(C(N)CCc3ccccc3)cs2)cc(OC)c1OC (stereo not drawn)	> 25 µM (inactive)	> 25	> 25	5.15	7.96	6.55 µM
O=C(c1ccoc1)N1CCN(c2cc(-c3ccccc3)nc3cc(-c4ccc(Br)cc4)nn23)CC1	> 25 µM (inactive)	> 25	> 25	12.8	11.3	12.1 µM
COc1cc(-c2cnc3c(NC=O)cc(-c4cccnc4)cn23)cc(OC)c1OC	> 25 µM (inactive)	> 25	> 25	14.5	17	15.8 µM (inactive)
CC(C)N1CSC(=S)N(Cc2ccccc2)C1	> 25 µM (inactive)	> 25	> 25	> 25	> 25	> 25 µM (inactive)
COc1ccc(-c2sc3cc4c(cc3c2C#Cc2ccc(N)cc2)OCO4)cc1	> 25 µM (inactive)	> 25	> 25	> 25	> 25	> 25 µM (inactive)
C#CCN(C[C@@H]1[C@@H](OC(=O)NCC2CCCCC2)[C@@H](OC(=O)NCC2CCCCC2)CN(C(=O)OC(C)C)N1C(=O)OC(C)C)S(=O)(=O)c1ccc(C)cc1	> 25 µM (inactive)	> 25	> 25	10.1	11.2	10.6 µM
Cc1cccc(NC(=O)c2ccc([N+](=O)[O-])o2)c1C	10.3 µM (inactive)	9.7	10.9	19.8	> 25	–
